Results as given in patent US20220324865A1 (Bayer Aktiengesellschaft, priority 2018, published 2022).
Counter-ions that a name gives are not always drawn.

These compounds were tested against T1, human EP3 receptor (Homo sapiens, UniProt P43115) (assay: Cellular in vitro assay for determining EP3 receptor activity (human EP3 cell line, sulprostone-stimulated calcium luminescence)). Conditions: CHO cells expressing human EP3 and mitochondrial Clytin; antagonist mode, sulprostone at EC50; read-out: EP3 CHO mtCLY ANTAG IC50.
T1 construct: expressed in transfected cells; host or cells: CHO K1 (Chinese Hamster Ovary), stably co-transfected with Galpha16 and mitochondrial clytin
T1 sequence (P43115 1-390): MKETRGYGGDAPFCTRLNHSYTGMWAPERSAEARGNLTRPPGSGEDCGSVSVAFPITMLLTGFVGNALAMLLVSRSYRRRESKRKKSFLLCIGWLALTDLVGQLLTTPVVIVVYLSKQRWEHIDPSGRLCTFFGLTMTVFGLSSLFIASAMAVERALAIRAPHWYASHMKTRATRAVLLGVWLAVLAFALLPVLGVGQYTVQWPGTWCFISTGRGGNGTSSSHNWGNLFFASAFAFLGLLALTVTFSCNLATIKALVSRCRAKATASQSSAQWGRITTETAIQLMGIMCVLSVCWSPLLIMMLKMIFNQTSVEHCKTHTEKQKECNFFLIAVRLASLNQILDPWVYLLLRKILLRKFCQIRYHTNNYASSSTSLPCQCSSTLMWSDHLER
Format: cell-based
Method: B-1. Cellular In Vitro Assay for Determining EP3 Receptor Activity
The identification of antagonists of the EP3 receptor from humans and rats as well as the quantification of the activity of the compounds of the invention was carried out using recombinant cell lines. These cell lines originally derive from a hamsters ovary epithelial cell (Chinese Hamster Ovary, CHO K1, ATCC: American Type Culture Collection, Manassas, Va. 20108, USA). The test cell lines constitutively express the human or rat EP3 receptors. The naturally Gαi-coupled human and rat EP3 receptors were stably co-transfected with Gα16 into cells that are also stably transfected with a mitochondrial form of the calcium-sensitive photoproteins Clytin (human EP3) or Photina (rat EP3), which, after reconstitution with the cofactor coelenterazine, emit light when there are increases in free calcium concentrations (Nature 1992, 358, 325-327; Gene 1995, 153 (2), 273-274). The resulting EP3 receptor cells react to stimulation of the recombinantly expressed EP3 receptors by the agonist sulprostone with intracellular release of calcium ions, which can be quantified by the resulting photoprotein luminescence. Antagonists inhibit the receptor signaling, leading to reduced calcium release and luminescence. The bioluminescence of the cell lines is detected using a suitable luminometer (Trends Pharmacol. Sci. 1996, 17, 235-237).
Human and Rat EP3 Cell Lines:
On the day before the assay, the cells are plated out in culture medium (OptiMEM, 1% FCS, 2 mM glutamine, 10 mM HEPES, 5 μg/ml coelenterazine) in 384-well microtiter plates and kept in a cell incubator (96% humidity, 5% v/v CO2, 37° C.). On the day of the assay, test compounds in various concentrations are placed for 10 minutes in the wells of the microtiter plate before the agonist sulprostone at EC50 concentration is added. The resulting light signal is measured immediately in a luminometer. All concentrations are measured in quadruples.

IC50 [nM]	SMILES
2.3	Cc1cc(-c2cn3nc(C(=O)N[C@@H](c4ccc(F)cc4)C(C)(C)O)c(C(C)C)c3c(=O)[nH]2)ccc1Cl [6-606]
5.4	NC(=O)[C@H](NC(=O)c1cc2c(=O)[nH]c(-c3ccc4ccccc4c3)cn2n1)c1ccccc1 [6-84]
1.04	Cc1ccc(-c2cn3nc(C(=O)N[C@@H](C)C4CC4)c(C(F)(F)F)c3c(=O)[nH]2)cc1Cl [6-164]
3.15	CC(C)(C)OC(=O)NCC(NC(=O)c1cc2c(=O)[nH]c(-c3ccc4c(c3)OCCO4)cn2n1)c1ccc(F)cc1 (centres unmarked) [6-43]
0.84	Cc1ccc(-c2cn3nc(C(=O)NCC(O)C(F)(F)F)c(C4CC4)c3c(=O)[nH]2)cc1C (single isomer, unassigned) [6-436]
3.95	CC[C@@H](NC(=O)c1nn2cc(-c3cnc4cccc(C)c4c3)[nH]c(=O)c2c1C(C)C)c1ccccc1 [Example 4-49, 6-(5-Methylquinolin-3-yl)-4-oxo-N-[(1R)-1-phenylpropyl]-3-(propan-2-yl)-4,5-dihydropyrazolo[1,5-a]pyrazine-2-carboxamide]
3.2	C[C@H](NC(=O)c1nn2cc(-c3ccc4ccccc4c3)[nH]c(=O)c2c1C#N)c1ccccc1 [Example 3-46, 3-Cyano-6-(naphthalen-2-yl)-4-oxo-N-[(1S)-1-phenylethyl]-4,5-dihydropyrazolo[1,5-a]pyrazine-2-carboxamide]
1.11	Cc1cc(-c2cn3nc(C(=O)NC(C)C4CCC4)c(C(F)(F)F)c3c(=O)[nH]2)ccc1Cl (racemic) [6-222]
0.76	Cc1ccc(-c2cn3nc(C(=O)NCC(N)C(F)(F)F)c(C4CC4)c3c(=O)[nH]2)cc1C (single isomer, unassigned) [6-433]
3.55	CC(CC(F)(F)F)NC(=O)c1cc2c(=O)[nH]c(-c3ccc4ccccc4c3)cn2n1 (centres unmarked) [6-52]
5.55	C[C@@H](CO)NC(=O)c1nn2cc(-c3ccc(Cl)c(Cl)c3)[nH]c(=O)c2c1C1CC1 [6-414]
2.15	O=C(NC(CO)c1ccc(F)cc1)c1cc2c(=O)[nH]c(-c3ccc4cccnc4c3)cn2n1 (centres unmarked) [6-30]
2.5	COC[C@H](NC(=O)c1cc2c(=O)[nH]c(-c3ccc4ccccc4c3)cn2n1)c1ccccc1 [Example 1-2, N-[(1R)-2-Methoxy-1-phenylethyl]-6-(naphthalen-2-yl)-4-oxo-4,5-dihydropyrazolo[1,5-a]pyrazine-2-carboxamide]
4.05	O=C(N[C@H](CCO)c1ccc(F)cc1)c1cc2c(=O)[nH]c(-c3ccc(Cl)c(Cl)c3)cn2n1 [6-635]
1.3	Cc1ccc(-c2cn3nc(C(=O)N[C@H](C)C(C)C)c(C4CC4)c3c(=O)[nH]2)cc1Cl [6-274]
1.95	Cc1cccc2ncc(-c3cn4nc(C(=O)NC5CCOC5)c(C(C)C)c4c(=O)[nH]3)cc12 (centres unmarked) [Example 4-21, 3-Isopropyl-6-(5-methyl-3-quinolyl)-4-oxo-N-(tetrahydrofuran-3-yl)-5H-pyrazolo[1,5-a]pyrazine-2-carboxamide]
2.2	Cc1ccc(-c2cn3nc(C(=O)NCCC(O)C(F)(F)F)c(C4CC4)c3c(=O)[nH]2)cc1F (racemic) [6-366]
1.14	COc1ccc(C(C)NC(=O)c2nn3cc(-c4cnc5cccc(C)c5c4)[nH]c(=O)c3c2C(C)C)cc1 (centres unmarked) [Example 4-7, 3-Isopropyl-N-[1-(4-methoxyphenyl)ethyl]-6-(5-methyl-3-quinolyl)-4-oxo-5H-pyrazolo[1,5-a]pyrazine-2-carboxamide]
2.25	CC[C@H](C)NC(=O)c1nn2cc(-c3ccc(C)c(Cl)c3)[nH]c(=O)c2c1C(F)(F)F [6-190]

IC50 [nM]	SMILES
6.9	O=C(NC1CCN(CC(F)F)C1)c1nn2cc(-c3ccc4ccccc4c3)[nH]c(=O)c2c1C(F)(F)F (single isomer, unassigned) [6-519]
5.45	Cc1c(C(=O)NCc2ccccn2)nn2c(C)c(-c3ccc4ccccc4c3)[nH]c(=O)c12 [Example 3-70, 3,7-Dimethyl-6-(naphthalen-2-yl)-4-oxo-N-[(pyridin-2-yl)methyl]-4,5-dihydropyrazolo[1,5-a]pyrazine-2-carboxamide]
2.85	Cc1cc(-c2cn3nc(C(=O)NC(C)C4CCC4)c(C4CC4)c3c(=O)[nH]2)ccc1Cl (racemic) [6-298]
1.2	CCn1cc(CNC(=O)c2nn3cc(-c4ccc5ccccc5c4)[nH]c(=O)c3c2C(F)(F)F)c(C)n1 [6-496]
3.35	O=C(NC1(c2ccc(F)cc2)CNC1)c1nn2cc(-c3ccc4ccccc4c3)[nH]c(=O)c2c1C(F)(F)F [Example 1-125, N-[3-(4-Fluorophenyflazetidin-3-yl]-6-(naphthalen-2-yl)-4-oxo-3-(trifluoromethyl)-4,5-dihydropyrazolo[1,5-a]pyrazine-2-carboxamide hydrochloride]
1.03	Cc1cc(-c2cn3nc(C(=O)N[C@@H](c4ccc(F)cc4)C(F)(F)CO)c(C(F)(F)F)c3c(=O)[nH]2)ccc1Cl [Example 1-171, 6-(4-Chloro-3-methylphenyl)-N-[(1S)-2,2-difluoro-1-(4-fluorophenyl)-3-hydroxpropyl]-4-oxo-3-(trifluoromethyl)-4,5-dihydropyrazolo[1,5-a]pyrazine-2-carboxamide]
0.41	Cc1ccc(-c2cn3nc(C(=O)N[C@@H](c4ccc(F)cc4)C(F)(F)CO)c(C(F)(F)C(F)(F)F)c3c(=O)[nH]2)cc1C [6-489]
0.625	Cc1ccc(-c2cn3nc(C(=O)N[C@H](CCO)c4ccc(F)cc4)c(C(C)C)c3c(=O)[nH]2)cc1C [Example 1-92, 6-(3,4-Dimethylphenyl)-N-[(1R)-1-(4-fluorophenyl)-3-hydroxpropyl]-4-oxo-3-(propan-2-yl)-4,5-dihydropyrazolo[1,5-a]pyrazine-2-carboxamide]
1.85	O=C(NCC(O)C(F)(F)F)c1nn2cc(-c3ccc(Cl)c(Cl)c3)[nH]c(=O)c2c1C1CC1 (single isomer, unassigned) [6-417]
0.74	Cc1cc(-c2cn3nc(C(=O)N[C@@H](c4ccc(F)cc4)[C@@H](O)C(F)(F)F)c(C4CC4)c3c(=O)[nH]2)ccc1Cl [6-316]
3.05	Cc1cc(-c2cn3nc(C(=O)NC4(c5ccc(F)cc5)CN(C)C4)c(C(F)(F)C(F)(F)F)c3c(=O)[nH]2)ccc1Cl [6-480]
1.45	Cc1ccc(-c2cn3nc(C(=O)N[C@@H](C)C(C)C)c(C(F)(F)F)c3c(=O)[nH]2)cc1Cl [6-187]
2.5	COc1ccc(C(C)NC(=O)c2cc3c(=O)[nH]c(-c4ccc(C)c(C)c4)cn3n2)cn1 (centres unmarked) [Example 5-4, 6-(3,4-Dimethylphenyl)-N-[1-(6-methoxypyridin-3-yl)ethyl]-4-oxo-4,5-dihydropyrazolo[1,5-a]pyrazine-2-carboxamide]
9.25	C[C@@H](CN1CC(F)C1)NC(=O)c1nn2cc(-c3ccc4ccccc4c3)[nH]c(=O)c2c1C(F)(F)F [6-514]
4	Cc1nn(C)cc1C(C)NC(=O)c1cc2c(=O)[nH]c(-c3ccc4ccccc4c3)cn2n1 (centres unmarked) [Example 2-5, N-[1-(1,3-Dimethyl-1H-pyrazol-4-yl)ethyl]-6-(2-naphthyl)-4-oxo-4,5-dihydropyrazolo[1,5-a]pyrazine-2-carboxamide]
5.75	CC(C)(O)[C@@H](NC(=O)c1cc2c(=O)[nH]c(-c3ccc4c(c3)CCC4)cn2n1)c1ccc(F)cc1 [Example 1-134, 6-(2,3-Dihydro-1H-inden-5-yl)-N-[(1S)-1-(4-fluorophenyl)-2-hydroxy-2-methylpropyl]-4-oxo-4,5-dihydropyrazolo[1,5-a]pyrazine-2-carboxamide]
3	O=C(N[C@@H](c1ccc(F)cc1)C(F)(F)CO)c1nn2cc(-c3cc(F)c(Cl)cc3F)[nH]c(=O)c2c1C1CC1 [6-585]
1.25	CCn1cc(CNC(=O)c2nn3c(C)c(-c4ccc5ccccc5c4)[nH]c(=O)c3c2C)c(C)n1 [Example 3-14, N-[(1-Ethyl-3-methyl-1H-pyrazol-4-yl)methyl]-3,7-dimethyl-6-(naphthalen-2-yl)-4-oxo-4,5-dihydropyrazolo[1,5-a]pyrazine-2-carboxamide]
5.1	CCN1CC(NC(=O)c2nn3cc(-c4ccc5ccccc5c4)[nH]c(=O)c3c2C(F)(F)F)(c2ccc(F)cc2)C1 [Example 1-126, N-[1-Ethyl-3-(4-fluorophenyl)azetidin-3-yl]-6-(naphthalen-2-yl)-4-oxo-3-(trifluoromethyl)-4,5-dihydropyrazolo[1,5-a]pyrazine-2-carboxamide]
